Biological target: cdk2/Cyclin A (Homo sapiens, UniProt P24941)
Experiment: inhibition assay of cdk2/Cyclin A activity (MultiScreen-PH phosphocellulose filter plate, histone H1, P33γ-ATP)
Assay type: biochemical
Details: tested against cdk2/A; read-out: inhibitory activity, expressed as IC50
Experimental: The inhibiting activity of putative cdk/cyclin inhibitors and the potency of selected compounds was determined through a method of assay based on the use of the MultiScreen-PH 96 well plate (Millipore), in which phosphocellulose filter paper was placed at each well bottom allowing binding of positive charged substrate after a washing/filtration step.
When a radioactivity labelled phosphate moiety was transferred by the ser/threo kinase to the filter-bound histone, light emitted was measured in a scintillation counter.
The inhibition assay of cdk2/Cyclin A activity was performed according to the following protocol.
Kinase reaction: 1.5 μM histone H1 substrate, 25 μM ATP (0.5 uCi P33γ-ATP), 100 ng Cyclin A/cdk2 complex, 10 μM inhibitor in a final volume of 100 μl buffer (TRIS HCl 10 mM pH 7.5, MgCl2 10 mM, 7.5 mM DTT) were added to each well of a 96 U bottom well plate. After 10 minutes at 37° C. incubation, reaction was stopped by 20 μl EDTA 120 mM.
Capture: 100 μl were transferred from each well MultiScreen plate, to allow substrate binding phosphocellulose filter. […]
Detection: filters were allowed to dry at 37° C., then 100 μl/well scintillant were added and 33P labelled histone H1 was detected by radioactivity counting in the Top-Count instrument.
Results: data were analysed and expressed as % inhibition referred to total activity of enzyme (=100%).

IC50: 8 nM
SMILES: C[C@H](C(=O)Nc1cc(C2CC2)[nH]n1)c1ccc(N2CCOC2=O)cc1 [(2S)-N-(5-cyclopropyl-1H-pyrazol-3-yl)-2-[4-(2-oxo-1,3-oxazolidin-3-yl)phenyl]propanamide]

Source: US6455559B1, “Phenylacetamido-pyrazole derivatives, process for their preparation and their use as antitumor agents” (Pharmacia Italia S.p.A., priority 2001, dated 2002)
